The results in this text go back to patent publication US20240158446A1, “CYCLIC COMPOUND HAVING SELECTIVE INHIBITORY ACTION ON KRAS OVER HRAS AND NRAS” (CHUGAI SEIYAKU KABUSHIKI KAISHA, priority 2021, published 2024).

Like-named read-outs stand apart in the source and are kept apart here. Where a SMILES comes first, the peptide text is derived from it. Bridges are numbered along the chain shown (N, C = ends). [ ]: non-standard residue; d: D form. The star is where a group is joined. hPhe(3-Cl-4-CF3) = N[C@@H](CCc1ccc(C(F)(F)F)c(Cl)c1)C(=O)O; NPrPhe(4-CF3) = CCCN[C@@H](Cc1ccc(C(F)(F)F)cc1)C(=O)O; NMeGly(cPent) = CN[C@H](C(=O)O)C1CCCC1; Hyp = O=C(O)[C@@H]1C[C@@H](O)CN1; NMeD = CN[C@@H](CC(=O)O)C(=O)O; NMeL = CN[C@@H](CC(C)C)C(=O)O; Morpholide = C1CN(*)CCO1; Ac5c = NC1(C(=O)O)CCCC1; Ethyl(2,2-F2) = FC(F)C*; Sar = CNCC(=O)O

Test [1] has as its target GDP-bound NRAS wild-type protein (Homo sapiens, UniProt P01111). As to the kind of experiment: Binding to NRAS by surface plasmon resonance (SPR), Single Cycle Kinetics. The note with it: SPR, GDP-bound NRAS wild-type protein vs GDP-bound KRAS wild-type protein. On the technique in general: Surface plasmon resonance follows binding to a sensor surface in real time, without labels.

Test [2] deals with GDP-bound KRAS wild-type protein (Homo sapiens, UniProt P01116). Description: Binding to KRAS by surface plasmon resonance (SPR), Single Cycle Kinetics. The settings on record: GDP-bound KRAS wild-type protein, read-out: KRAS KD.
Test [3] has as its target GDP-bound HRAS wild-type protein (Homo sapiens, UniProt P01112). Description: Binding to HRAS by surface plasmon resonance (SPR), Single Cycle Kinetics. The settings on record: SPR, GDP-bound HRAS wild-type protein vs GDP-bound KRAS wild-type protein.

Sequence of GDP-bound HRAS wild-type protein (P01112 whole entry): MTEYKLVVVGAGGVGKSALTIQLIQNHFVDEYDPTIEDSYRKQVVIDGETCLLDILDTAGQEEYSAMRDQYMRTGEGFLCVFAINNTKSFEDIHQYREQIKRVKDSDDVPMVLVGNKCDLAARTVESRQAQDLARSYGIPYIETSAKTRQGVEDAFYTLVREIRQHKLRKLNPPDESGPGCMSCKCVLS
Sequence of GDP-bound KRAS wild-type protein (P01116 whole entry): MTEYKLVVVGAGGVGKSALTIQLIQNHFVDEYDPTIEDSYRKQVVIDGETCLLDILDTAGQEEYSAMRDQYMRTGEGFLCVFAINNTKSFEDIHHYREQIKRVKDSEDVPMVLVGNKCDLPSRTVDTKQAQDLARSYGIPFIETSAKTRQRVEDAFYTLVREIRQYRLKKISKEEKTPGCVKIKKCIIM
Sequence of GDP-bound NRAS wild-type protein (P01111 whole entry): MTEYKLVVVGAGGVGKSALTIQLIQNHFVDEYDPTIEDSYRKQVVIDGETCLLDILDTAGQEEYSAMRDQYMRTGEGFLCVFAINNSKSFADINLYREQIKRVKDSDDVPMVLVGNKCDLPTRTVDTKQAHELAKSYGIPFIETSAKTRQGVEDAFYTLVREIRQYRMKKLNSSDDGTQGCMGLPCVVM

For the compound `CCCN1C(=O)CN(C)C(=O)CN(C)C(=O)[C@H]([C@@H](C)CC)NC(=O)[C@H](CC(C)C)N(C)C(=O)C[C@@H](C(=O)N2CCOCC2)N(C)C(=O)[C@H](C2CCCC2)N(C)C(=O)C2(CCCC2)NC(=O)[C@@H]2C[C@@H](OCC(F)F)CN2C(=O)[C@H](CCc2ccc(C(F)(F)F)c(Cl)c2)NC(=O)CN(C)C(=O)[C@@H]1Cc1ccc(C(F)(F)F)cc1` [PP0246] ([NMeL]I[Sar][Sar][NPrPhe(4-CF3)][Sar][hPhe(3-Cl-4-CF3)][Hyp](Ethyl(2,2-F2))[Ac5c][NMeGly(cPent)][NMeD]-Morpholide; lactam N-11), in test [1], the “NRAS/KRAS (ratio of KD value for NRAS to KD value for KRAS)” value is “B (a compound having 3 or more and less than 10 is denoted as B)”. The Kd in test [2] (SPR Single Cycle Kinetics, 1:1 binding model) is 0.054 nM. Moreover, the “HRAS/KRAS (ratio of KD value for HRAS to KD value for KRAS)” value in test [3] is “C (A compound having a KD ratio of 0.1 or more and less than 3 is denoted as C)”.
As to `CCO[C@@H]1C[C@H]2C(=O)NC3(CCCC3)C(=O)N(C)[C@@H](C3CCCC3)C(=O)N(C)[C@H](C(=O)N(C)C)CC(=O)N(C)[C@@H](CC(C)C)C(=O)N[C@@H]([C@@H](C)CC)C(=O)N(C)CC(=O)N(C)[C@H]3C/C=C\CCN(C3=O)[C@@H](Cc3ccc(C(F)(F)F)cc3)C(=O)N(C)CC(=O)N[C@@H](CCc3cc(F)c(Cl)c(F)c3)C(=O)N2C1` [PP2269], the “NRAS/KRAS (ratio of KD value for NRAS to KD value for KRAS)” value in test [1] is “A (a compound having 10 or more and less than 20 is denoted as A)”. In test [2] (SPR, Single Cycle Kinetics), the dissociation constant Kd worked out at 0.38 nM. The “HRAS/KRAS (ratio of KD value for HRAS to KD value for KRAS)” value in test [3] is “A (a compound having 10 or more and less than 20 is denoted as A)”.
For the compound `CCO[C@@H]1C[C@H]2C(=O)NC3(CCC3)C(=O)N(C)[C@@H](CC(C)C)C(=O)N(C)[C@H](C(=O)N(C)C)CC(=O)N(C)[C@@H](CC)C(=O)N[C@@H]([C@@H](C)CC)C(=O)N(C)CC(=O)N(C)[C@H]3C/C=C\CCN(C3=O)[C@@H](Cc3ccc(C(F)(F)F)cc3)C(=O)N(C)CC(=O)N[C@@H](CCc3cc(F)c(C(F)(F)F)c(F)c3)C(=O)N2C1` [PP1089, (2S,8S,12R,14S,20S,23S,27S,30S,36S,38Z)-8-[2-[3,5-difluoro-4-(trifluoromethyl)phenyl]ethyl]-12-ethoxy-27-ethyl-20-isobutyl-N,N,4,19,22,26,32,35-octamethyl-30-[(1S)-1-methylpropyl]-3,6,9,15,18,21,25,28,31,34,42-undecaoxo-2-[[4-(trifluoromethyl)phenyl]methyl]spiro[1,4,7,10,16,19,22,26,29,32,35-undecazatricyclo[34.5.1.0^10,14]dotetracont-38-ene-17,1′-cyclobutane]-23-carboxamide], the “NRAS/KRAS (ratio of KD value for NRAS to KD value for KRAS)” value in test [1] is reported as “AA (a compound having 20 or more is denoted as AA)”. Also, in test [2] (SPR, Single Cycle Kinetics), the Kd is 0.12 nM. For the same compound, the “HRAS/KRAS (ratio of KD value for HRAS to KD value for KRAS)” value in test [3] is “A (a compound having 10 or more and less than 20 is denoted as A)”.
For `CCO[C@@H]1C[C@H]2C(=O)NC3(CC(C)(C)C3)C(=O)N(C)[C@@H](C(CC)CC)C(=O)N(C)[C@H](C(=O)N3CCCC3)CC(=O)N(C)[C@@H](C)C(=O)N[C@@H]([C@@H](C)CC)C(=O)N(C)CC(=O)N(C)[C@H]3C/C=C\CCN(C3=O)[C@@H](Cc3ccc(C(F)(F)F)cc3)C(=O)N(C)CC(=O)N[C@@H](CCc3ccc(Cl)c(Cl)c3)C(=O)N2C1` [PP2178], the “NRAS/KRAS (ratio of KD value for NRAS to KD value for KRAS)” value in test [1] was “AA (a compound having 20 or more is denoted as AA)”. Also, the Kd in test [2] (SPR, Single Cycle Kinetics) was found to be 0.49 nM. The “HRAS/KRAS (ratio of KD value for HRAS to KD value for KRAS)” value in test [3] is “A (a compound having 10 or more and less than 20 is denoted as A)”.
Consider `CCO[C@@H]1C[C@H]2C(=O)NC3(CCC3)C(=O)N(C)[C@@H](C3CCCC3)C(=O)N(C)[C@H](C(=O)N(C)C)CC(=O)N(C)[C@@H](CC)C(=O)N[C@@H]([C@@H](C)CC)C(=O)N(C)CC(=O)N(C)[C@H]3CCCCN(C3=O)[C@@H](Cc3ccc(C(F)(F)F)cc3)C(=O)N(C)CC(=O)N[C@@H](CCc3ccc(C(F)(F)F)c(C)c3)C(=O)N2C1` [PP0882], for which the “NRAS/KRAS (ratio of KD value for NRAS to KD value for KRAS)” value in test [1] is “C (A compound having a KD ratio of 0.1 or more and less than 3 is denoted as C)”. In addition, the Kd in test [2] (SPR, Single Cycle Kinetics) came out at 0.02 nM. Also, in test [3], the “HRAS/KRAS (ratio of KD value for HRAS to KD value for KRAS)” value is “B (a compound having 3 or more and less than 10 is denoted as B)”.

By Kd is commonly meant a measure of binding affinity in units of concentration.
